Assay [1] deals with human prolyl oligopeptidase (Homo sapiens (Human), UniProt P48147). Nature of the assay: POP inhibition assay (Z-G-P-AMC substrate, fluorimetric). Conditions: 100 mM Na/K phosphate buffer, pH 8.0, hPOP 20 to 60 nM, Z-G-P-AMC, 1 hour at 37° C.; read-out: IC50, inhibition of human prolyl oligopeptidase. Type of assay: biochemical. The method, then: Expression and Purification of Prolyl Oligopeptidase (POP)
POP was obtained by expression in E. coli and affinity purification using a His tail fusion according to a literature procedure (Tarragó T et al., ChemBioChem 2006; 7:827-33) summarized below:
hPOP expression: E. coli BL21 competent cells were transformed with pETM10 hPOP. To induce expression, a pre-culture of LB medium (50 mL) containing kanamycin (50 μg/mL) was inoculated with one colony and was grown overnight at 37° C. Next day, two cultures of LB medium (500 mL) were inoculated with the overnight culture (10 mL). The inoculated cultures were grown at 37° C. and 220 rpm until the OD595 was 1.2 (2.5-3 hours). IPTG was then added (final concentration of 1 mM) and induction was performed overnight at 25° C. Cells were harvested (3500 g, 15 min, 4° C.) and the pellet was suspended in suspension buffer (50 mL) [Tris-HCl pH 8 (50 mM), NaCl (300 mM), imidazole (1 mM)] and sonicated with use of four cycles (each consisting of 15 sec of sonication and 15 sec of rest) at an intensity of 50% and 0.5 pulses, the sample being kept on ice. After sonication, the sample was centrifuged (40 000 g, 30 min, 4° C.) and the supernatant was used immediately for POP purification. An ÁKTA explorer FPLC system was used for purification. The supernatant was applied at a flow of 1 mL/min to a HiTrapQuelating column (5 mL) previously equilibrated with 5 column volumes of suspension buffer. The column was washed with suspension buffer until the absorbance at 280 nm returned to basal level. The column was then rinsed with 5 volumes of washing buffer (50 mM Tris-HCl, pH 8, 300 mM NaCl, 30 mM imidazole). The elution was performed with 4 volumes of elution buffer (50 mM Tris-HCl, pH 8, 300 mM NaCl, 500 mM imidazole). Fractions (4 mL) were collected during the entire elution. POP activity was checked in all fractions and positive ones were analyzed by SDS-PAGE and stained with Biosafe Comassie Stain G-250. Positive fractions were collected and desalted by use of a HiPrep 26/10 Desalting column with Tris-HCl (50 mM, pH 8) as buffer. Recombinant hPOP was quantified with the Bio-Rad Protein Assay with BSA as standard. Aliquots of the recombinant enzyme were prepared and immediately frozen with liquid nitrogen and stored at −80° C.
POP activity was determined following the method described by Toide et al (Toide K et al., J. Pharmacol. Exp. Ther. 1995; 274:1370-8), using Z-G-P-AMC (N-benzyloxycarbonyl-Gly-Pro-methylcoumarinyl-7-amide) as POP substrate. The reactions were performed in 96-well microtiter plates, which allowed simultaneous monitoring of multiple reactions. For each reaction, activity buffer (134 μl, 100 mM Na/K phosphate buffer, pH 8.0) was pre-incubated for 15 min at 37° C. with hPOP (ranging from 20 to 60 nM, depending on the activity of the hPOP batch) and the corresponding new compound solution (3 μl). A stock solution of new compound was prepared in DMSO (100 mM), and dilutions were prepared from this stock solution with DMSO. Alternatively, the reactions were performed using another activity buffer (141 μL, 100 mM Tris-acetate, […], 1 mM DTT, pH 7.3), pre-incubating with hPOP (10 nM) and the corresponding new compound solution (3 μl) (Conditions B).
After preincubation, Z-G-P-AMC (10 μl, 3 mM in 40% 1,4-dioxane) was added (3 μl, 1.5 mM in 40% of 1,4-dioxane, in Conditions B), and the reaction was incubated for 1 hour at 37° C. The reaction was stopped by adding sodium acetate (150 μl, 1 M, pH 4) and the formation of AMC was measured fluorimetrically. The excitation and emission wavelengths were 360/40 and 485/20 nm, respectively.
Several concentration points (ranging from 25 μM to 400 μM) were measured for each compound. The inhibitory activity on prolyl oligopeptidase was calculated according to eq 1. For each new compound, the fluorescence in the presence (a) and in the absence of hPOP (b) was measured. […]

Assay [2] relates to MK-801-treated rodents. Put plainly: Passive avoidance task in MK-801 cognition impairment model. Type of assay: in vivo, rodents (mice or rats). Conditions: 5 mg/Kg s.c. 35 min before shock session; MK-801 0.2 mg/kg i.p.; FIG. 2. The method, then:
The new compounds were evaluated for their efficacy as cognition enhancers in a pharmacological model for cognitive impairment. The effects of the new compounds were evaluated in untreated and MK-801-treated rodents (mice or rats). MK-801 is a non-competitive antagonist of the N-Methyl-D-aspartate (NMDA) receptor which impairs animal performance in various learning and memory paradigms (Castellano C et al., Curr. Drug Targets 2001; 2:273-83; Riedel G et al., Behav. Brain Res. 2003; 140:1-47). MK-801 also produces various effects on rodent behavior, including deficits in sensory processing, hypermotility, stereotypy and ataxia. […]
For the evaluation of the passive avoidance task, a two-compartment box with a light compartment and a dark compartment of the same dimensions was used. […] In the evaluation session, the time which the animal takes to enter the dark compartment (in seconds) was measured, as a sign of memory retention of the shock received in the dark compartment during the previous session. […] The corresponding evaluated compound was injected s.c. 35 min before the shock session, followed 15 minutes later by i.p. injection of MK-801, or PBS in the case of the control, in the same doses and volume as described for the object recognition test.

As usually defined, the IC50 is the midpoint of a concentration-inhibition curve.

Sequence of human prolyl oligopeptidase (P48147 whole entry, the tested form may be a part): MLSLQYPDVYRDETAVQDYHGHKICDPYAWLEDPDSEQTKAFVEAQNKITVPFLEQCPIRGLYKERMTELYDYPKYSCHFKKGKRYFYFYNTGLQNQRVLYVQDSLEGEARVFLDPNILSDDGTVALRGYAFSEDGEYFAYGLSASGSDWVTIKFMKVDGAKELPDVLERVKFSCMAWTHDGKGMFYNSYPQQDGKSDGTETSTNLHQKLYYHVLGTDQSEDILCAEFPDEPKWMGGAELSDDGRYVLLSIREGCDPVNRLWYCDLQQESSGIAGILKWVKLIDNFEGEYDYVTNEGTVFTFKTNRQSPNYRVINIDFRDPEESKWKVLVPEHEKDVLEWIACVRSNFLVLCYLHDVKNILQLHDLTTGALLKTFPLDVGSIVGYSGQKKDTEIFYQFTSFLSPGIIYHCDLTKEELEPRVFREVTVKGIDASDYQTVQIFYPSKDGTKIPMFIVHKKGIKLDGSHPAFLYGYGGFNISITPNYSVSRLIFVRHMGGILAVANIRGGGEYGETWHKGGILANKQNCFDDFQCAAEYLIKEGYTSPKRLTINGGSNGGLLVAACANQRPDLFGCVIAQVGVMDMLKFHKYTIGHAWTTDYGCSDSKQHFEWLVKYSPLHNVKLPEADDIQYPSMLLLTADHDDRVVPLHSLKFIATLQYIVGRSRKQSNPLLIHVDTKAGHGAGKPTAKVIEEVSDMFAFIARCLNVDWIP

As to `COc1cc(C(=O)N2CC(F)(F)C[C@H]2C(=O)N2CCC[C@H]2C#N)cc(OC)c1OCc1ccccc1` [Example 4, (S)-1-((2S)-1-(4-(benzyloxy)-3,5-dimethoxybenzoyl)-4,4-difluoropyrrolidine-2-carbonyl)pyrrolidine-2-carbonitrile], in assay [1], the IC50 was found to be 48.7 nM. For the same compound, in assay [2], the “Reversal of MK-801-induced memory impairment in the passive avoidance test (latency to enter dark compartment)” value was “able to reverse MK-801-induced memory impairment”.

The record behind these values is patent US10125097B2, “1- [1-(benzoyl)-pyrrolidine-2-carbonyl]-pyrrolidine-2-carbonitrile derivatives” (UNIVERSITAT DE BARCELONA, priority 2012, dated 2018).
